Test results reported in patent US20090297545A1, “IMMUNOMODULATORY DAIRY PEPTIDES AND USES THEREOF” (Universite Laval, priority 2008, published 2009).

Key:
murine splenocytes [1] = assay: In vitro murine splenocyte proliferation assay (Alamar Blue), Example III; assay type: cell-based, BALB/c mice; details: for Effect on ConA-induced proliferation at low concentrations: 10 and 100 μg/mL; for Effect on ConA-induced proliferation at low concentrations / Effect on splenocyte proliferation in the presence of ConA at higher concentrations: ConA 0.5 μg/mL; for Concentration at which stimulation of resting cell proliferation becomes significant: resting cells, dose-dependent up to 2000 μg/mL
Procedure: In vitro murine splenocyte proliferation assay. The impact of whey peptides on splenocyte proliferation was assessed as follow. Spleens from 6-week-old female BALB/c mice (Charles River, St-Constant, QC, Canada) were removed, mechanically disrupted in complete RPMI-1640 medium (RPMI-1640 medium supplemented with 2 mmol L^−1 L-glutamine (Wisent, St-Bruno, QC, Canada), 10% foetal calf serum (FCS, Wisent), 50 μmol L^−1 mercaptoethanol (Sigma-Aldrich), and 100 μg mL^−1 of penicillin/streptomycin (Wisent), and then filtered through 70 μm cell strainer (BD Falcon, Bedford, Mass., USA) under aseptic conditions. Erythrocytes were lysed by osmotic shock using 0.87% NH4Cl (Sigma-Aldrich) for 2 min at 37° C., then cells were washed 3 times at 4° C. with complete RPMI. They were stained with 0.4% trypan blue (Celigro, Mediatech, Washington, D.C., USA) and counted using a Malassez chamber. The cell suspension was then adjusted to 1.25×10^6 viable cells mL^−1 in RPMI medium.
The cells (100 μL) were added to the wells of 96-well round-bottomed microplates containing 50 μL of RPMI, or 50 μL of peptide solutions. Various concentrations (10-2000 μg mL^−1) of the solutions, which were prepared in complete RPMI and adjusted to pH 7, were added to the wells. The same experiments were also performed in the presence of ConA (0.5 μg mL^−1) to evaluate the effects of the products on ConA-stimulated cells. The microplates with and without ConA were incubated for 72 h and 96 h, respectively. Cell proliferation was evaluated by the reduction of the fluorochrome Alamar Blue™ (BioSource international, Camarillo, Calif., USA), which was added to the wells (20 μL) for the last 24 h of the incubation periods. The fluorescence of the supernatants was monitored at an excitation wavelength of 544 nm and an emission wavelength of […] using a fluorometer (Fluoroscan Ascent, Thermo Electron Inc., Milford, Mass., USA). Data are expressed as a stimulation index (SI).

murine splenocytes [2] = assay: Cytokine profile of splenocyte supernatants, RayBio Mouse Cytokine Antibody Array; assay type: cell-based, BALB/c mice; details: peptide 2000 μg/mL + ConA 0.5 μg/mL, 72 h; Cells + ConA = 1
Procedure: Cytokine analyses. After 72 hours, the supernatants from the splenocyte cultures with the cells, cells+ConA (0.5 μg/mL), and each of the peptides (2000 μg/mL) in the presence of ConA (0.5 μg/mL) were collected and stored at −20° C. until used for the cytokine detection assay. A cytokine profile analysis was performed by using the RayBio Mouse Cytokine Antibody Array G series 2 (RayBiotech, Inc., Norcross, Ga.), in order to obtain semi-quantitative levels of 32 different growth factors, cytokines and chemokines (Table 7).
Incubation protocol, signal detection, and interpretation of the data were performed according to manufacturer instructions. Results were expressed as the relative quantity of cytokines detected in the culture supernatants calculated according to the following equation: […]

Substance	Effect on ConA-induced proliferation at low concentrations (murine splenocytes [1])	Effect on splenocyte proliferation in the presence of ConA at higher concentrations (murine splenocytes [1])	Concentration at which stimulation of resting cell proliferation becomes significant (murine splenocytes [1]) [µg/mL]	Relative quantity of IFN-γ in supernatant (murine splenocytes [2])	Relative quantity of IL-2 in supernatant (murine splenocytes [2])	Relative quantity of IL-3 in supernatant (murine splenocytes [2])	Relative quantity of IL-4 in supernatant (murine splenocytes [2])	Relative quantity of IL-17 in supernatant (murine splenocytes [2])	Relative quantity of RANTES in supernatant (murine splenocytes [2])	Relative quantity of VEGF in supernatant (murine splenocytes [2])	Effect on proliferation of resting splenocytes (murine splenocytes [1]; 10-2000 μg/mL, without ConA)	Stimulation index (SI), proliferation of resting splenocytes (murine splenocytes [1]; 500 μg/mL, without ConA)	Stimulation index (SI), proliferation of resting splenocytes (murine splenocytes [1]; 1000 μg/mL, without ConA)	Stimulation index (SI), proliferation of resting splenocytes (murine splenocytes [1]; 2000 μg/mL, without ConA)
Asp-Thr-Asp-Tyr (DTDY; listed as Homo sapiens) [β-Lg f96-99]	inhibited	lost their stimulating capacity	500	4.5	3.6	2.8	1.8	1.7	1.4	2.3	–	–	–	–
GLDIQK (listed as Homo sapiens) [β-Lg f9-14]	–	lost their stimulating capacity	–	1.7	2.6	1.0	1.4	1.1	1.0	2.0	only a small stimulation at the highest concentration	–	–	–
His-Ile-Arg (HIR; listed as Homo sapiens) [β-Lg f146-148]	inhibited	lost their stimulating capacity	500	8.6	2.1	1.8	0.5	1.4	0.8	4.8	–	1.20	1.36	1.37
